Columns and labels:
[1] = system: Mycosphaerella arachidis (Cercospora arachidicola); assay: Example B-2: Action against Mycosphaerella arachidis, fungal growth assay; assay type: cell-based; details: 0.002% active ingredient, PDB broth, 24° C., photometric after 6-7 days
Method: (§1) Action Against Mycosphaerella arachidis (Early Leaf Spot of Groundnut; Cercospora arachidicola [fanamorph])—Fungal Growth Assay Conidia of the fungus from cryogenic storage were directly mixed into nutrient broth (PDB potato dextrose broth). After placing a (DMSO) solution of the test compounds (0.002% active ingredient) into a microtiter plate (96-well format) the nutrient broth containing the fungal spores was added. The test plates were incubated at 24° C. and the inhibition of growth was measured photometrically after 6-7 days. The activity of a compound was expressed as fungal growth inhibition (0=no growth inhibition, ratings of 80% to 99% mean good to very good inhibition, 100%=complete inhibition).

[2] = system: Monographella nivalis (anamorph: Fusarium nivale, Microdochium nivale); assay: Example B-4: Action against Monographella nivalis, fungal growth assay; assay type: cell-based; details: 0.002% active ingredient, PDB broth, 24° C., photometric after 72 hrs
Method: as §1, with “Monographella nivalis (anamorph: Fusarium nivale, Microdochium nivale; Snow Mould)—Fungal” for “Mycosphaerella arachidis (Early Leaf Spot of Groundnut; Cercospora arachidicola [fanamorph])—Fungal”, “DMSO-solution” for “(DMSO) solution”, “72 hrs” for “6-7 days. The activity of a compound was expressed as fungal growth inhibition”

[3] = system: Erysiphe graminis f. sp. tritici; assay: Example B-5: Action against Erysiphe graminis f. sp. tritici (wheat powdery mildew), wheat leaf segments; assay type: in vivo; details: Blumeria graminis, foliar, 168 h, 0.02% active ingredient, 7 days after inoculation, read-out: preventive fungicidal activity (inhibition)
Method: (§2) Action Against Erysiphe graminis f. sp. tritici (Wheat Powdery Mildew) Wheat leaf segments were placed on agar in multiwell plates (24-well format) and sprayed with test solutions (0.02% active ingredient). After drying, the leaf disks were inoculated with a spore suspension of the fungus. After appropriate incubation the activity of a compound was assessed 7 days after inoculation as preventive fungicidal activity.

Pyrenophora teres [4] = assay: Example B-8: Action against Pyrenophora teres (net blotch) on barley leaf segments; assay type: in vivo; details: foliar, 96 h, 0.02% active ingredient, 4 days after inoculation, read-out: preventive fungicidal activity (inhibition)
Method: as §2, with “Pyrenophora teres (Net Blotch) on Barley Barley” for “Erysiphe graminis f. sp. tritici (Wheat Powdery Mildew) Wheat”, “4” for “7”

[5] = system: Blumeria graminis f. sp. tritici (Erysiphe graminis f. sp. tritici); assay: Example B-9: Blumeria graminis f. sp. tritici / wheat / leaf disc preventive (comparative); assay type: in vivo; details: 4 dpi
Method: (§3) Blumeria graminis f. sp. tritici (Erysiphe graminis f. sp. tritici)/Wheat/Leaf Disc Preventive (Powdery mildew on wheat) Wheat leaf segments were placed on agar in a multiwell plate (24-well format) and sprayed with test solutions. After drying, the leaf disks were inoculated with a spore suspension of the fungus. After appropriate incubation the activity of a compound was assessed 4 dpi (days after inoculation) as preventive fungicidal activity.

[6] = system: Phaeosphaeria nodorum (Septoria nodorum); assay: Example B-11: Phaeosphaeria nodorum / wheat / leaf disc preventative (comparative); assay type: in vivo; details: 4 dpi
Method: as §3, with “Phaeosphaeria nodorum (Septoria nodorum)/Wheat/Leaf” for “Blumeria graminis f. sp. tritici (Erysiphe graminis f. sp. tritici)/Wheat/Leaf”, “Preventative (Glume Blotch)” for “Preventive (Powdery mildew on wheat)”

Pyrenophora teres [7] = assay: Example B-12: Pyrenophora teres / barley / leaf disc preventive (comparative); assay type: in vivo; details: 4 dpi
Method: as §3, with “Pyrenophora teres/Barley/Leaf” for “Blumeria graminis f. sp. tritici (Erysiphe graminis f. sp. tritici)/Wheat/Leaf”, “(Net Blotch) Barley” for “(Powdery mildew on wheat) Wheat”

Alternaria solani = assay: Example B-13: Alternaria solani / tomato / leaf disc (comparative); assay type: in vivo; details: 4 dpi
Method: Alternaria solani/Tomato/Leaf Disc (Early Blight) Tomato leaf disks were placed on water agar in multiwell plates (24-well format) and sprayed with test solutions. After drying, the leaf disks were inoculated with a spore suspension of the fungus. After appropriate incubation the activity of a compound was assessed 4 dpi (days after inoculation) as preventive fungicidal activity.

[8] = system: Mycosphaerella arachidis (Cercospora arachidicola); assay: Example B-15: Mycosphaerella arachidis / liquid culture (comparative); assay type: cell-based; details: 24° C., photometric after 6-7 days, read-out: inhibition of growth
Method: (§4) Mycosphaerella arachidis (Cercospora arachidicola)/Liquid Culture (Early Leaf Spot) Conidia of the fungus from cryogenic storage were directly mixed into nutrient broth (PDB potato dextrose broth). After placing a (DMSO) solution of the test compounds into a microtiter plate (96-well format) the nutrient broth containing the fungal spores was added. The test plates were incubated at 24° C. and the inhibition of growth is measured photometrically after 6-7 days.

Gaeumannomyces graminis = assay: Example B-17: Gaeumannomyces graminis / liquid culture (comparative); assay type: cell-based; details: 24 C, photometric after 2-3 days, read-out: inhibition of growth
Method: as §4, with “Gaeumannomyces graminis/Liquid” for “Mycosphaerella arachidis (Cercospora arachidicola)/Liquid”, “(Take-All of Cereals) Mycelial fragments” for “(Early Leaf Spot) Conidia”, “24 C” for “24° C.”, “was determined” for “is measured”, “2-3” for “6-7”

[9] = system: Monopraphella nivalis (Microdochium nivale); assay: Example B-18: Monographella nivalis (Microdochium nivale) / liquid culture (comparative); assay type: cell-based; details: 24° C., photometric after 4-6 days, read-out: inhibition of growth
Method: as §4, with “Monopraphella nivalis (Microdochium nivale)/Liquid” for “Mycosphaerella arachidis (Cercospora arachidicola)/Liquid”, “(Foot Rot Cereals” for “(Early Leaf Spot)”, “4-6” for “6-7”

CON(C(=O)c1cn(C)nc1C(F)F)C(C)c1ccc(Cl)cc1Cl (stereo not shown) [Compound 1.023]
inhibition at 0.002 % strength [1]: ≥ 80% | inhibition at 0.002 % strength [2]: ≥ 50% | inhibition at 0.02 % strength [3]: ≥ 80% | inhibition at 0.02 % strength (Pyrenophora teres [4]): ≥ 80% | preventive fungicidal activity ([5]; 20 ppm): 90 | preventive fungicidal activity ([5]; 60 ppm): 100 | preventive fungicidal activity ([5]; 200 ppm): 100 | preventive fungicidal activity ([6]; 20 ppm): 70 | preventive fungicidal activity ([6]; 60 ppm): 90 | preventive fungicidal activity ([6]; 200 ppm): 90 | preventive fungicidal activity (Pyrenophora teres [7]; 20 ppm): 100 | preventive fungicidal activity (Pyrenophora teres [7]; 60 ppm): 100 | preventive fungicidal activity (Pyrenophora teres [7]; 200 ppm): 100 | preventive fungicidal activity (Alternaria solani; 20 ppm): 90 | preventive fungicidal activity (Alternaria solani; 60 ppm): 100 | preventive fungicidal activity (Alternaria solani; 200 ppm): 100 | inhibition at 6 ppm ([8]; 6 ppm): 100% | inhibition at 20 ppm ([8]; 20 ppm): 100% | inhibition at 60 ppm ([8]; 60 ppm): 100% | inhibition at 6 ppm (Gaeumannomyces graminis; 6 ppm): 0% | inhibition at 20 ppm (Gaeumannomyces graminis; 20 ppm): 0% | inhibition at 60 ppm (Gaeumannomyces graminis; 60 ppm): 50% | inhibition at 6 ppm ([9]; 6 ppm): 0% | inhibition at 20 ppm ([9]; 20 ppm): 0% | inhibition at 60 ppm ([9]; 60 ppm): 50%

Source: patent publication US8357634B2, “N-alkoxycarboxamides and their use as microbiocides” (Syngenta Crop Protection LLC, priority 2009, dated 2013)
